Measurements as given in patent publication US20240376100A1 (Redona Therapeutics, Inc., priority 2021, published 2024).
Structures can show the parent of a compound that is named as a salt.

target: PAPD5 enzyme (Homo sapiens, UniProt Q8NDF8); assay: PAPD5 assay (AMP incorporation onto 3'-terminus of RNA substrate, fluorescence quench); assay type: biochemical; conditions: PAPD5 protein 0.3 nM, ATP 50 μM, 30 minutes preincubation, room temperature; read-out: Potency PAPD5 IC50
Outline: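 Enzyme at 0.3 nM with 50 μM ATP, pH 7.3 HEPES buffer, preincubated with compound 30 minutes at room temperature; 5 nM 5′-fluorescein RNA substrate and 20 nM TAMRA quench probe then added. Initial rates from kinetic fluorescein decrease over ~90 minutes; IC50 by four-parameter fit.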

Chain of PAPD5 enzyme (Q8NDF8 whole entry): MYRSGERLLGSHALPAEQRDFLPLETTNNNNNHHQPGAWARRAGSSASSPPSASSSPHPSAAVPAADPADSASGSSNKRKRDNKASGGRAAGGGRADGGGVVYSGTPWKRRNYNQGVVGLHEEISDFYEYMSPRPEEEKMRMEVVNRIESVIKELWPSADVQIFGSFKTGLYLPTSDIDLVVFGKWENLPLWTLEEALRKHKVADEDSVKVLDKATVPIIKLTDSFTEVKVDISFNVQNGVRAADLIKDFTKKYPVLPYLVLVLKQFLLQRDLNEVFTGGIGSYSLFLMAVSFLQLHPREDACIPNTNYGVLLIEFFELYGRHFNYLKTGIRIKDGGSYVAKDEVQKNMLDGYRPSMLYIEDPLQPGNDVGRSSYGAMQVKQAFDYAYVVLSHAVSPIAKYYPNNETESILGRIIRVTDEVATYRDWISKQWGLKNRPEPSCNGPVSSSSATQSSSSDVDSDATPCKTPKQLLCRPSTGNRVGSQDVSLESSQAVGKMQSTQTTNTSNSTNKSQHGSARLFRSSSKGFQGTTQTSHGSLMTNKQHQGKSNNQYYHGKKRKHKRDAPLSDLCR

IC50, ≤ 1000 nM:
CCOc1cc2c(=O)c(C(=O)O)cn(-c3cnc(N)cc3C)c2cc1N1Cc2cccnc2C1 [Example 144, 1-(6-amino-4-methylpyridin-3-yl)-7-(5,7-dihydro-6H-pyrrolo[3,4-b]pyridin-6-yl)-6-ethoxy-4-oxo-1,4-dihydroquinoline-3-carboxylic acid]
Cc1ccccc1Cn1cc(C(=O)O)c(=O)c2cc(Cl)c(N3Cc4cccnc4C3)nc21 [Example 70, 6-chloro-7-(5,7-dihydro-6H-pyrrolo[3,4-b]pyridin-6-yl)-1-(2-methylbenzyl)-4-oxo-1,4-dihydro-1,8-naphthyridine-3-carboxylic acid]
CN(CCO)c1ccn(-c2nc3c(cc2Cl)c(=O)c(C(=O)O)cn3-c2ccc(N)nc2)n1 [Example 93, 1-(6-aminopyridin-3-yl)-6-chloro-7-(3-((2-hydroxyethyl)(methyl)amino)-1H-pyrazol-1-yl)-4-oxo-1,4-dihydro-1,8-naphthyridine-3-carboxylic acid]
CCc1cc(N)ncc1-n1cc(C(=O)O)c(=O)c2cc(Cl)c(N3Cc4cccnc4C3)cc21 [Example 117, 1-(6-amino-4-ethylpyridin-3-yl)-6-chloro-7-(5,7-dihydro-6H-pyrrolo[3,4-b]pyridin-6-yl)-4-oxo-1,4-dihydroquinoline-3-carboxylic acid]
O=C(O)c1cn(-c2ccc(O)cc2)c2cc(N3Cc4cccnc4C3)c(Cl)cc2c1=O [Example 16, 6-chloro-7-(5,7-dihydro-6H-pyrrolo[3,4-b]pyridin-6-yl)-1-(4-hydroxyphenyl)-4-oxo-1,4-dihydroquinoline-3-carboxylic acid]
O=C(O)c1cn(-c2ccc(O)cc2)c2cc(N3Cc4cccnc4C3)c(F)cc2c1=O [Example 18, 7-(5,7-dihydro-6H-pyrrolo[3,4-b]pyridin-6-yl)-6-fluoro-1-(4-hydroxyphenyl)-4-oxo-1,4-dihydroquinoline-3-carboxylic acid]
O=C(O)c1cn(-c2ccc(O)c(F)c2)c2cc(N3Cc4cccnc4C3)c(Cl)cc2c1=O [Example 3, 6-chloro-1-(3-fluoro-4-hydroxyphenyl)-4-oxo-7-{5H,6H,7H-pyrrolo[3,4-b]pyridin-6-yl}-1,4-dihydroquinoline-3-carboxylic acid]
Cc1cc(NC(=O)OC(C)(C)C)ncc1-n1cc(C(=O)O)c(=O)c2cc(Cl)c(-n3cccn3)nc21 [Example 164, 1-(6-((tert-butoxycarbonyl)amino)-4-methylpyridin-3-yl)-6-chloro-4-oxo-7-(1H-pyrazol-1-yl)-1,4-dihydro-1,8-naphthyridine-3-carboxylic acid]
Cc1cc(N)ncc1-n1cc(C(=O)O)c(=O)c2cc(F)c(N3CCc4ccccc4C3)cc21 [Example 181, 1-(6-amino-4-methylpyridin-3-yl)-7-(3,4-dihydroisoquinolin-2(1H)-yl)-6-fluoro-4-oxo-1,4-dihydroquinoline-3-carboxylic acid]
O=C(O)c1cn(CC2CCC2)c2cc(N3Cc4cccnc4C3)c(Cl)cc2c1=O [Example 33, 6-chloro-1-(cyclobutylmethyl)-7-(5,7-dihydro-6H-pyrrolo[3,4-b]pyridin-6-yl)-4-oxo-1,4-dihydroquinoline-3-carboxylic acid]
CC(C)(C)OC(=O)N1CCC(Cn2cc(C(=O)O)c(=O)c3cc(Cl)c(N4Cc5cccnc5C4)nc32)CC1 [Example 72, 1-((1-(tert-butoxycarbonyl)piperidin-4-yl)methyl)-6-chloro-7-(5,7-dihydro-6H-pyrrolo[3,4-b]pyridin-6-yl)-4-oxo-1,4-dihydro-1,8-naphthyridine-3-carboxylic acid]
COCCN1CCC(Cn2cc(C(=O)O)c(=O)c3cc(Cl)c(N4Cc5cccnc5C4)cc32)CC1 [Example 125, 6-chloro-7-(5,7-dihydro-6H-pyrrolo[3,4-b]pyridin-6-yl)-1-((1-(2-methoxyethyl)piperidin-4-yl)methyl)-4-oxo-1,4-dihydroquinoline-3-carboxylic acid hydrochloride]
O=C(O)c1cn(Cc2ccccc2F)c2nc(N3Cc4cccnc4C3)c(Cl)cc2c1=O [Example 68, 6-chloro-7-(5,7-dihydro-6H-pyrrolo[3,4-b]pyridin-6-yl)-1-(2-fluorobenzyl)-4-oxo-1,4-dihydro-1,8-naphthyridine-3-carboxylic acid]
O=C(O)c1cn(-c2cnccn2)c2cc(N3Cc4ccccc4C3)c(Cl)cc2c1=O [Example 21, 6-chloro-7-(isoindolin-2-yl)-4-oxo-1-(pyrazin-2-yl)-1,4-dihydroquinoline-3-carboxylic acid]
CNc1ccn(-c2nc3c(cc2Cl)c(=O)c(C(=O)O)cn3-c2cnc(N)cc2C)n1 [Example 148, 1-(6-amino-4-methylpyridin-3-yl)-6-chloro-7-(3-(methylamino)-1H-pyrazol-1-yl)-4-oxo-1,4-dihydro-1,8-naphthyridine-3-carboxylic acid]
Cc1cc(N)ncc1-n1cc(C(=O)O)c(=O)c2ccc(N3Cc4cccnc4C3)cc21 [Example 140, 1-(6-amino-4-methylpyridin-3-yl)-7-(5,7-dihydro-6H-pyrrolo[3,4-b]pyridin-6-yl)-4-oxo-1,4-dihydroquinoline-3-carboxylic acid]
Nc1ccc(-n2cc(C(=O)O)c(=O)c3cc(F)c(N4Cc5ccccc5C4)cc32)cn1 [Example 195, 1-(6-aminopyridin-3-yl)-6-fluoro-7-(isoindolin-2-yl)-4-oxo-1,4-dihydroquinoline-3-carboxylic acid]
N#Cc1cc2c(=O)c(C(=O)O)cn(CC3CCC3)c2nc1N1Cc2cccnc2C1 [Example 7, 6-cyano-1-(cyclobutylmethyl)-4-oxo-7-{5H,6H,7H-pyrrolo[3,4-b]pyridin-6-yl}-1,4-dihydro-1,8-naphthyridine-3-carboxylic acid]
CCN(CCOC)c1cc2c(cc1Cl)c(=O)c(C(=O)O)cn2-c1cnc(N)cc1C [Example 138, 1-(6-amino-4-methylpyridin-3-yl)-6-chloro-7-(ethyl(2-methoxyethyl)amino)-4-oxo-1,4-dihydroquinoline-3-carboxylic acid]
CCOc1cc2c(=O)c(C(=O)O)cn(-c3cnc(NC(=O)OC(C)(C)C)cc3C)c2cc1N1Cc2cccnc2C1 [Example 149, 1-(6-((tert-butoxycarbonyl)amino)-4-methylpyridin-3-yl)-7-(5,7-dihydro-6H-pyrrolo[3,4-b]pyridin-6-yl)-6-ethoxy-4-oxo-1,4-dihydroquinoline-3-carboxylic acid]
Cc1cc(NC(=O)OC(C)(C)C)ncc1-n1cc(C(=O)O)c(=O)c2cnc(N3Cc4cccnc4C3)cc21 [Example 150, 1-(6-((tert-butoxycarbonyl)amino)-4-methylpyridin-3-yl)-7-(5,7-dihydro-6H-pyrrolo[3,4-b]pyridin-6-yl)-4-oxo-1,4-dihydro-1,6-naphthyridine-3-carboxylic acid]
